In PMC8580996, “2-Oxoglutarate derivatives can selectively enhance or inhibit the activity of human oxygenases” (Nature Communications, 2021):
pIC50: −log10 of the molar value. “And” between values parts separate entries of the source, which are not always exact repeats. Equal entries are not always repeated. Where two headings read alike, the source gives them in different places. Blank lines part the entries; values can stand above or below the molecule they belong to.

Experiments:
AspH = biological target: T1, AspH (Homo sapiens, UniProt Q12797); assay: Competition assay in a single reaction vessel, AspH-catalyzed hydroxylation (SPE-MS); format: biochemical
T1 construct: the tetratricopeptide repeat domain (His6-AspH315-758), was produced and purified as previously reported; made in house
T1 sequence (Q12797 315-758): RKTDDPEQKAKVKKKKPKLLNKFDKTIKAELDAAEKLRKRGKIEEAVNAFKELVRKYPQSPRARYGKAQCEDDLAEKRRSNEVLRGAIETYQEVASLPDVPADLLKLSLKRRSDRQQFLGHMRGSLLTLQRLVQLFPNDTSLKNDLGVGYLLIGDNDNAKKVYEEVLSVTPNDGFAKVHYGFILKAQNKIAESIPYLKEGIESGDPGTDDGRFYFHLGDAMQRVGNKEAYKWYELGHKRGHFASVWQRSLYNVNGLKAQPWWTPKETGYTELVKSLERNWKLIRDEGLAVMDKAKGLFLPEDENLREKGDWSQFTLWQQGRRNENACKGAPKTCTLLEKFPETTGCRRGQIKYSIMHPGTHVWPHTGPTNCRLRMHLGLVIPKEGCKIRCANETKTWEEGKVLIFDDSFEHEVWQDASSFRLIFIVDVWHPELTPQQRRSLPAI
Method: Mean of three independent runs (n = 3; mean ± SD). […] Cosubstrates: a 20 μM 2OG; b 20 μM 2OG; c 20 μM 1; d 20 μM 12; e 20 μM 12 and 100 μM 2OG; f 100 μM 14. Source data are provided as a Source Data file.
Mean of three independent runs (n = 3; mean ± SD). […] Source data are provided as a Source Data file.
Peptide turnover was monitored by SPE-MS using the same instrument configuration (with the exception that the peptides were eluted from the SPE cartridge with 0.1%v/v aqueous formic acid in 80/20 v/v acetonitrile/water) as described above.
FIH and AspH-catalyzed peptide hydroxylations were analyzed simultaneously using SPE-MS as described in the
Methods section; competition experiments were performed in the same reaction vessel using equimolar 2OG
oxygenase and substrate concentrations. […]
Source data are provided as a Source Data file.
FIH and AspH-catalyzed peptide hydroxylations were analyzed simultaneously using SPE-
MS as described in the Methods section; competition experiments were performed in the same reaction vessel
using equimolar 2OG oxygenase and substrate concentrations. […]
2OG, 100 μM 14. Source data are provided as a Source Data file.

FIH = FIH (Homo sapiens, UniProt Q9NWT6); assay: SPE-MS FIH inhibition assay; format: biochemical; as to IC50 FIH: 0.15 µM FIH
Method: FIH inhibition assays were performed as described, using cosubstrate/cofactor stock solutions (L-ascorbic acid, LAA: 50 mM in MQ-grade water; 2-oxoglutarate, 2OG: 10 mM in MQ-grade water; ammonium iron(II) sulfate hexahydrate, FAS, (NH4)2Fe(SO4)2·6H2O: 400 mM in 20 mM HCl diluted to 1 mM in MQ-grade water), which were freshly prepared from commercially-sourced solids (Sigma Aldrich).
Dimethyl sulfoxide (DMSO) solutions of the 2OG derivatives were dry dispensed across 384-well polypropylene assay plates (Greiner) in an approximately threefold and 11-point dilution series (100 μM top concentration; the final DMSO assay concentration was kept constant at 0.5%v/v) using an ECHO 550 acoustic dispenser (Labcyte). […] Each reaction was performed in technical duplicates in adjacent wells of the assay plates; additionally, assays were performed in two independent duplicates on different days using different inhibitor solutions.
The Enzyme Mixture (25 μL/well), containing 0.3 μM His6-FIH in buffer (50 mM Tris, 50 mM NaCl, pH 7.5), was dispensed across the inhibitor-containing 384-well assay plates with a multidrop dispenser (ThermoFischer Scientific) at 20 °C under an ambient atmosphere. The plates were subsequently centrifuged (1000 rpm, 15 s) and incubated for 15 min at 20 °C. The Substrate Mixture (25 μL/well), containing 10.0 μM HIF-1α788–822[37] substrate, 200 μM LAA, 20.0 μM 2OG, and 20.0 μM FAS in buffer (50 mM Tris, 50 mM NaCl, pH 7.5), was added using the multidrop dispenser. The plates were centrifuged (1000 rpm, 15 s) and after incubating for 15 min, the enzyme reaction was stopped by the addition of 10%v/v aqueous formic acid (5 μL/well). The plates were then centrifuged (1000 rpm, 30 s) and analyzed by MS.
MS-analyses were performed using a RapidFire RF 365 high-throughput sampling robot (Agilent) attached to an iFunnel Agilent 6550 accurate-mass quadrupole time-of-flight mass spectrometer operated in the positive ionization mode. Assay samples were aspirated under vacuum for 0.6 s and loaded onto a C4 SPE cartridge. After loading, the C4 SPE cartridge was washed with 0.1%v/v aqueous formic acid to remove non-volatile buffer salts (5.5 s, 1.5 mL/min). […] The mass spectrometer was operated using the MassHunter Workstation B.08.00 software (Agilent), the mass spectrometer parameters were: capillary voltage (4000 V), nozzle voltage (1000 V), fragmentor voltage (365 V), gas temperature (280 °C), gas flow (13 L/min), sheath gas temperature (350 °C), sheath gas flow (12 L/min). The m/z + 2 (for CA1–20) or +3 (for HIF-1α788–822) charge states of the peptide (substrate) and the hydroxylated peptide (product) were used to extract ion chromatogram data, peak areas were integrated using RapidFire Integrator 4.3.0 (Agilent). Data were exported into Microsoft Excel and used to calculate the % conversion of the hydroxylation reaction using the equation: % conversion = 100 × (integral product peptide)/(integral substrate peptide+integral product peptide). […] Z′-factors were calculated according to the cited literature using Microsoft Excel (Supplementary Fig. 26)[83].
SPE-MS FIH inhibition assays were performed as described in the Methods section.
Tris, 50 mM NaCl, pH 7.5, 20 °C). […]

[1] = source data of Table 3, single independent replicates
[2] = source data of Table 3, single independent replicates, read-out: FIH IC50, independent replicate

Sequence of FIH (Q9NWT6 whole entry): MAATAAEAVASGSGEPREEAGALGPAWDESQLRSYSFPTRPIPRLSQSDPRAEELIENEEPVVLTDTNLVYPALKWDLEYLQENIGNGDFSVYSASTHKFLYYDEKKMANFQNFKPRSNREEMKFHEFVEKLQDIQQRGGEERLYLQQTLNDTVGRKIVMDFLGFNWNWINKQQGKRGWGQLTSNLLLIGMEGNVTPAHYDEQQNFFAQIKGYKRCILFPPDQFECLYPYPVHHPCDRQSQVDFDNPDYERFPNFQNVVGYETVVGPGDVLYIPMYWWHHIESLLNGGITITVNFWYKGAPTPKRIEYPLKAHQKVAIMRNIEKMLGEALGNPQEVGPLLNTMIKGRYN

SMILES: O=C(O)CCC(=O)C(=O)O [2OG, 2-Oxoglutarate]
substrate hydroxylation (% conversion) (AspH; Fig 2b, 20 μM 2OG, AspH, 1.4395 min): 100 | substrate hydroxylation (% conversion) (AspH; Fig 2b, 20 μM 2OG, AspH, 1.6805 min): 100 | substrate hydroxylation (% conversion) (AspH; Fig 2b, 20 μM 2OG, AspH, 1.9205 min): 100 | substrate hydroxylation (% conversion) (AspH; Fig 2b, 20 μM 2OG, AspH, 2.40217 min): 100 | substrate hydroxylation (% conversion) (AspH; Fig 2b, 20 μM 2OG, AspH, 2.64367 min): 100 | substrate hydroxylation (% conversion) (AspH; Fig 2b, 20 μM 2OG, AspH, 2.88417 min): 100 | substrate hydroxylation (% conversion) (AspH; Fig 2b, 20 μM 2OG, AspH, 3.1255 min): 100 | substrate hydroxylation (% conversion) (AspH; Fig 2b, 20 μM 2OG, AspH, 3.3665 min): 100 | substrate hydroxylation (% conversion) (AspH; Fig 2b, 20 μM 2OG, AspH, 3.60917 min): 100 | AspH-catalyzed hFX-EGFD1_86–124-4Ser hydroxylation (AspH; Fig 2b, 20 μM 2OG, within about 1 min): > 95% | time to apparent completion of AspH substrate hydroxylation (AspH; Fig 4a, 0.5 mM 2OG, absence of 13): ~ 1 min | AspH conversion (AspH; Supplementary Fig 8a, 20 μM 2OG, after 2 min): > 95%

SMILES: CC(CC(=O)O)C(=O)C(=O)O (centres unmarked) [compound 1, 3-methyl-2OG]
FIH IC50, independent replicate (FIH; [1]): not inhibiting | substrate hydroxylation (% conversion) (AspH; Fig 2c, 20 μM 1, AspH, 3.5005 min): 100 | substrate hydroxylation (% conversion) (AspH; Fig 2c, 20 μM 1, AspH, 4.20083 min): 100 | substrate hydroxylation (% conversion) (AspH; Fig 2c, 20 μM 1, AspH, 5.60117 min): 100 | substrate hydroxylation (% conversion) (AspH; Fig 2c, 20 μM 1, AspH, 6.29967 min): 100 | substrate hydroxylation (% conversion) (AspH; Fig 2c, 20 μM 1, AspH, 7.00033 min): 100 | substrate hydroxylation (% conversion) (AspH; Fig 2c, 20 μM 1, AspH, 7.7025 min): 100 | substrate hydroxylation (% conversion) (AspH; Fig 2c, 20 μM 1, AspH, 8.40233 min): 100 | substrate hydroxylation (% conversion) (AspH; Fig 2c, 20 μM 1, AspH, 9.10283 min): 100 | substrate hydroxylation (% conversion) (AspH; Fig 2c, 20 μM 1, AspH, 9.806 min): 100 | substrate hydroxylation (% conversion) (AspH; Fig 2c, 20 μM 1, AspH, […]): 100 | AspH-catalyzed hFX-EGFD1_86–124-4Ser hydroxylation (AspH; Fig 2c, 20 μM 1, within ~2 min): > 95%

SMILES: CC(CC(=O)C(=O)O)C(=O)O (centres unmarked) [compound 12, 4-methyl-2OG]
FIH IC50, independent replicate (FIH; [1]): not inhibiting | time to complete AspH-catalyzed hydroxylation of hFX-EGFD1_86–124-4Ser (AspH; Fig 2e, 20 μM 12 and 100 μM 2OG): ~ 2 min | substrate hydroxylation (% conversion) (AspH; Fig 2e, 20 μM 12 and 100 μM 2OG, AspH, 1.918 min): 100 | substrate hydroxylation (% conversion) (AspH; Fig 2e, 20 μM 12 and 100 μM 2OG, AspH, 2.15883 min): 100 | substrate hydroxylation (% conversion) (AspH; Fig 2e, 20 μM 12 and 100 μM 2OG, AspH, 2.6405 min): 100 | substrate hydroxylation (% conversion) (AspH; Fig 2e, 20 μM 12 and 100 μM 2OG, AspH, 2.88117 min): 100 | substrate hydroxylation (% conversion) (AspH; Fig 2e, 20 μM 12 and 100 μM 2OG, AspH, 3.12267 min): 100 | substrate hydroxylation (% conversion) (AspH; Fig 2e, 20 μM 12 and 100 μM 2OG, AspH, 3.36583 min): 100 | substrate hydroxylation (% conversion) (AspH; Fig 2e, 20 μM 12 and 100 μM 2OG, AspH, 3.60733 min): 100 | substrate hydroxylation (% conversion) (AspH; Fig 2e, 20 μM 12 and 100 μM 2OG, AspH, […]): 100 | AspH-catalyzed hFX-EGFD1_86–124-4Ser hydroxylation (AspH; Fig 2d, 20 μM 12, after ~10 min): ~ 90%

SMILES: O=C(O)C(=O)C1CCC(C(=O)O)C1 (centres unmarked) [compound 22, 3-(carboxycarbonyl)cyclopentane-1-carboxylic acid]
IC50 FIH (FIH; […] FIH, 5.0 μM HIF-1α788-822, 10 μM 2OG, mean of two runs): inactive

Results, then the molecule that gave them:

pIC50 (FIH; […] FIH, 5.0 μM HIF-1α788-822, 10 μM 2OG, mean of two runs, read-out: IC50 FIH): 4.71 | pIC50 (FIH; [2]): 4.56 and 4.88 and 4.78 | AspH-catalyzed hydroxylation of hFX-EGFD1_86–124-4Ser (AspH; Fig 2f, 100 μM 14, absence of 2OG): not observed | AspH catalysis (AspH; Supplementary Fig 27, tenfold excess of 14 over 100 μM 2OG): entirely suppressed
SMILES: CCC(CC(=O)C(=O)O)C(=O)O (centres unmarked) [compound 14, 4-ethyl-2OG]

pIC50 (FIH; [2]): 6.06 and 6.03
SMILES: O=C(O)C(=O)CC(CCCc1ccccc1)C(=O)O (centres unmarked) [compound 18, 4-(3-phenylpropyl)-2OG]
